The values that follow come from US7723523B2, “Tetrahydropyridothiophenes” (4SC AG, priority 2004, dated 2010).

Where only a bound is given, the exact number is not on record here.

Assay [1] relates to RKO (RKOp27) human colon adenocarcinoma cells. Description: Alamar Blue cell viability assay, anti-proliferative/cytotoxic activity on proliferating RKOp27 cells. Format: cell-based. Particulars: absence of Ponasterone A, 72 hours incubation, read-out: IC50 RKO p27 proliferating. As to the method: The anti-proliferative/cytotoxic activity of the compounds described herein, can be tested on subclones of RKO (RKOp27) human colon adenocarcinoma cells (Schmidt et al., Oncogene 19, 2423-2429; 2000) using the Alamar Blue cell viability assay (described in O'Brien et al. Eur J Biochem 267, 5421-5426, 2000). The compounds are dissolved as 20 mM solutions in dimethylsulfoxide (DMSO) and subsequently diluted in semi-logarithmic steps. DMSO dilutions are further diluted 1:100 into Dulbecco's modified Eagle's medium (DMEM) containing 10% fetal calf serum to a final concentration twice as much as the final concentration in the test. RKO subclones are seeded into 96 well flat bottom plates at a density of 4000 cells per well in a volume of 50 μl per well. 24 hours after seeding 50 μl each of the compound dilutions in DMEM are added into each well of the 96 well plate. Each compound dilution is tested as quadruplicates. Wells containing untreated control cells are filled with 50 μl DMEM containing 1% DMSO. The cells are then incubated with the substances for 72 hours at 37° C. in a humidified atmosphere containing 5% carbon dioxide. To determine the viability of the cells, 10 μl of an Alamar Blue solution (Biosource) are added and the fluorescence is measured at an extinction of 544 nm and an emission of 590 nm. For the calculation of the cell viability the emission value from untreated cells is set as 100% viability and the emission rates of treated cells are set in relation to the values of untreated cells. Viabilities are expressed as % values.
The corresponding IC50 values of the compounds for anti-proliferative/cytotoxic activity are determined from the concentration-effect curves.
Representative IC50 values for anti-proliferation/cytotoxicity determined in the aforementioned assay are described in the table A (1st column), in which the numbers of the compound correspond to the numbers of the examples.

Assay [2] concerns RKO colon adenocarcinoma cells (RKOp27) arrested by expression of ectopic p27Kip1. Description: Alamar Blue cell viability assay on RKOp27 cells arrested by Ponasterone A-induced p27Kip1 (cell cycle specific mode of action). Format: cell-based. The following applies: Homo sapiens, RKOp27, 72 h, cells arrested by p27Kip1 induced with 10 μM Ponasterone A, 72 hours incubation, read-out: IC50 RKO p27 arrested. Here is the method:
To determine the cell cycle specific mode of action, subclones of RKO colon adenocarcinoma cells (RKOp27 or RKOp21 as described by Schmidt et al. in Oncogene 19, 2423-2429; 2000) are seeded into 96 well flat bottom plates at a density of 16000 cells per well in a volume of 50 μl per well in DMEM growth medium with 10% FCS containing 10 μM Ponasterone A. 24 hours after seeding 50 μl each of the compound dilutions in DMEM are added into each well of the 96 well plate. Each compound dilution is tested as quadruplicates. Wells containing untreated control cells are filled with 50 μl DMEM containing 1% DMSO. The cells are then incubated with the substances for 72 hours at 37° C. in a humidified atmosphere containing 5% carbon dioxide. To determine the viability of the cells, 10 μl of an Alamar Blue solution (Biosource) are added and the fluorescence is measured at an extinction of 544 nm and an emission of 590 nm. For the calculation of the cell viability the emission value from untreated cells is set as 100% viability and the emission rates of treated cells are set in relation to the values of untreated cells. Viabilities are expressed as % values. Viability is compared of proliferating cells grown in the absence of the inducer Ponasterone A, versus viability of cells arrested by the expression of ectopic p27Kip1 induced by Ponasterone A. The data of this experimental setting are summarized in table A (2nd column).

For the compound `CCOC(=O)N1CCc2c(sc(NC(=O)/C=C/c3cccc(C)c3)c2C#N)C1` [Example 16, 3-Cyano-2-((E)-3-m-tolyl-allanoylamino)-4,7-dihydro-5H-thieno[2,3-c]pyridine-6-carboxylic acid ethyl ester], the results for the half-inhibitory concentration (IC50) in assay [1] and in assay [2] were ≤ 2 µM and > 100 µM, respectively.

As for `COCCOCC(=O)N1CCc2c(sc(NC(=O)/C=C/c3ccccc3)c2C#N)C1` [Example 175, (E)-N-{3-Cyano-6-[2-(2-methoxy-ethoxy)-ethanoyl]-4,5,6,7-tetrahydro-thieno[2,3-c]pyridin-2-yl}-3-phenyl-acrylamide], the results for the IC50 in assay [1] and in assay [2] were ≤ 2 µM and ≥ 100 µM, respectively.

With `CCOC(=O)N1CCc2c(sc(NC(=O)/C=C/c3cccc(OC)c3OCC)c2C#N)C1` [Example 96, 3-Cyano-2-[(E)-3-(2-ethoxy-3-methoxy-phenyl)-allanoylamino]-4,7-dihydro-5H-thieno[2,3-c]pyridine-6-carboxylic acid ethyl ester], the IC50 in assay [1] was ≤ 2 µM; in assay [2], ≥ 100 µM.

For `COCCOC(=O)N1CCc2c(sc(NC(=O)/C=C/c3ccccc3Cl)c2C#N)C1` [Example 142, 2-[(E)-3-(2-Chloro-phenyl)-allanoylamino]-3-cyano-4,7-dihydro-5H-thieno[2,3-c]pyridine-6-carboxylic acid 2-methoxy-ethyl ester], the values for the 50% inhibitory concentration (IC50) in assay [1] and in assay [2] were ≤ 2 µM and ≥ 100 µM, respectively.

Take `CCSC(=O)N1CCc2c(sc(NC(=O)/C=C/c3cccnc3)c2C#N)C1` [Example 36, 3-Cyano-2-((E)-3-pyridin-3-yl-allanoylamino)-4,7-dihydro-5H-thieno[2,3-c]pyridine-6-carbothioic acid S-ethyl ester]: the IC50 in assay [1] was ≤ 2 µM; in assay [2] it was > 100 µM.

As for `CCOc1ccccc1/C=C/C(=O)Nc1sc2c(c1C#N)CCN(C(=O)CCn1ccnc1)C2` [Example 224, (E)-N-[3-Cyano-6-(3-imidazol-1-yl-propanoyl)-4,5,6,7-tetrahydro-thieno[2,3-c]pyridin-2-yl]-3-(2-ethoxy-phenyl)-acrylamide], the 50% inhibitory concentration (IC50) in assay [1] was ≤ 2 µM; in assay [2] it was ≥ 100 µM.

As to `CC(=O)OCCCC(=O)N1CCc2c(sc(NC(=O)/C=C/c3ccccc3)c2C#N)C1` [Example 191, Acetic acid 4-[3-cyano-2-((E)-3-phenyl-allanoylamino)-4,7-dihydro-5H-thieno[2,3-c]pyridin-6-yl]-4-oxo-butyl ester], the IC50 was ≤ 2 µM in assay [1] and ≥ 100 µM in assay [2].

As for `CCOC(=O)N1CCc2c(sc(NC(=O)/C=C/c3ccc(Cl)o3)c2C#N)C1` [Example 78, 2-[(E)-3-(5-Chloro-furan-2-yl)-allanoylamino]-3-cyano-4,7-dihydro-5H-thieno[2,3-c]pyridine-6-carboxylic acid ethyl ester], the figures for the 50% inhibitory concentration (IC50) in assay [1] and in assay [2] were ≤ 2 µM and ≥ 100 µM, respectively.

Regarding `N#Cc1c(NC(=O)/C=C/c2cccnc2)sc2c1CCN(C(=O)OCCc1ccccc1)C2` [Example 47, 3-Cyano-2-((E)-3-pyridin-3-yl-allanoylamino)-4,7-dihydro-5H-thieno[2,3-c]pyridine-6-carboxylic acid phenethyl ester], the IC50 in assay [1] is ≤ 2 µM; in assay [2], > 100 µM.

In the case of `N#Cc1c(NC(=O)/C=C/c2cccnc2)sc2c1CCN(C(=O)OCc1ccncc1)C2` [Example 160, 3-Cyano-2-((E)-3-pyridin-3-yl-allanoylamino)-4,7-dihydro-5H-thieno[2,3-c]pyridin-6-carboxylic acid pyridin-4-ylmethyl ester], the half-inhibitory concentration (IC50) in assay [1] was ≤ 2 µM; in assay [2] it was ≥ 100 µM.

`CCCC(=O)N1CCc2c(sc(NC(=O)/C=C/c3cccnc3)c2C#N)C1` [Example 39, (E)-N-(6-Butyryl-3-cyano-4,5,6,7-tetrahydro-thieno[2,3-c]pyridin-2-yl)-3-pyridin-3-yl-acrylamide]: the figures for the IC50 in assay [1] and in assay [2] were ≤ 2 µM and > 100 µM, respectively.

On to `CCOC(=O)N1CCc2c(sc(NC(=O)/C=C/c3ccccc3C#N)c2C#N)C1` [Example 83, 3-Cyano-2-[(E)-3-(2-cyano-phenyl)-allanoylamino]-4,7-dihydro-5H-thieno[2,3-c]pyridine-6-carboxylic acid ethyl ester], for which the IC50 was ≤ 2 µM in assay [1] and ≥ 100 µM in assay [2].

In the case of `COCCOC(=O)N1CCc2c(sc(NC(=O)/C=C/c3ccccc3)c2C#N)C1` [Example 118, 3-Cyano-2-((E)-3-phenyl-allanoylamino)-4,7-dihydro-5H-thieno[2,3-c]pyridine-6-carboxylic acid 2-methoxy-ethyl ester], the values for the IC50 in assay [1] and in assay [2] were ≤ 2 µM and ≥ 100 µM, respectively.

`CCOC(=O)N1CCc2c(sc(NC(=O)/C=C/c3sccc3Cl)c2C#N)C1` [Example 64, 2-[(E)-3-(3-Chloro-thiophen-2-yl)-allanoylamino]-cyano-4,7-dihydro-5H-thieno[2,3-c]pyridine-6-carboxylic acid ethyl ester]: the figures for the IC50 in assay [1] and in assay [2] were ≤ 2 µM and ≥ 100 µM, respectively.

Consider `N#Cc1c(NC(=O)/C=C/c2cccnc2)sc2c1CCN(C(=O)OCCCc1cccnc1)C2` [Example 157, 3-Cyano-2-((E)-3-pyridin-3-yl-allanoylamino)-4,7-dihydro-5H-thieno[2,3-c]pyridine-6-carboxylic acid 3-pyridin-3-yl-propyl ester], for which the half-maximal inhibitory concentration (IC50) in assay [1] is ≤ 0.5 µM; in assay [2], ≥ 50 µM.

For `CN(C)C(=O)CCC(=O)N1CCc2c(sc(NC(=O)/C=C/c3ccccc3)c2C#N)C1` [Example 178, 4-[3-Cyano-2-((E)-3-phenyl-allanoylamino)-4,7-dihydro-5H-thieno[2,3-c]pyridin-6-yl]-N,N-dimethyl-4-oxo-butyramide], the IC50 in assay [1] was ≤ 2 µM; in assay [2], ≥ 100 µM.

For the compound `CC(=O)N1CCc2c(sc(NC(=O)/C=C/c3ccccc3)c2C#N)C1` [Example 34, (E)-N-(6-Acetyl-3-cyano-4,5,6,7-tetrahydro-thieno[2,3-c]pyridin-2-yl)-3-phenyl-acrylamide], the IC50 is ≤ 2 µM in assay [1] and > 100 µM in assay [2].

`N#Cc1c(NC(=O)/C=C/c2cccnc2)sc2c1CCN(C(=O)CCc1nccs1)C2` [Example 198, (E)-N-[3-Cyano-6-(3-thiazol-2-yl-propanoyl)-4,5,6,7-tetrahydro-thieno[2,3-c]pyridin-2-yl]-3-pyridin-3-yl-acrylamide]: the 50% inhibitory concentration (IC50) was ≤ 2 µM in assay [1] and ≥ 100 µM in assay [2].

`CCOC(=O)N1CCc2c(sc(NC(=O)/C=C/c3cccn3C)c2C#N)C1` [Example 97, 3-Cyano-2-[(E)-3-(1-methyl-1H-pyrrol-2-yl)-allanoylamino]-4,7-dihydro-5H-thieno[2,3-c]pyridine-6-carboxylic acid ethyl ester]: the IC50 in assay [1] is ≤ 2 µM; in assay [2], ≥ 100 µM.

As for `N#Cc1c(NC(=O)/C=C/c2ccco2)sc2c1CCN(C(=O)Cc1cccnc1)C2` [Example 228, (E)-N-[3-Cyano-6-(2-pyridin-3-yl-ethanoyl)-4,5,6,7-tetrahydro-thieno[2,3-c]pyridin-2-yl]-3-furan-2-yl-acrylamide], the IC50 in assay [1] was ≤ 2 µM; in assay [2], ≥ 100 µM.

With `CCOC(=O)N1CCc2c(sc(NC(=O)/C=C/c3cccc(OC)c3OC)c2C#N)C1` [Example 20, 3-Cyano-2-[(E)-3-(2,3-dimethoxy-phenyl)-allanoylamino]-4,7-dihydro-5H-thieno[2,3-c]pyridine-6-carboxylic acid ethyl ester], the IC50 in assay [1] is ≤ 2 µM; in assay [2], > 100 µM.

With `N#Cc1c(NC(=O)/C=C/c2ccccc2)sc2c1CCN(C(=O)OCCn1ccnc1)C2` [Example 136, 3-Cyano-2-((E)-3-phenyl-allanoylamino)-4,7-dihydro-5H-thieno[2,3-c]pyridine-6-carboxylic acid 2-imidazol-1-yl-ethyl ester], the half-inhibitory concentration (IC50) in assay [1] is ≤ 2 µM; in assay [2], ≥ 100 µM.
